One experiment concerns B16. The experiment in a line: The compound was tested for cytotoxicity against B16 melanoma cells. The experiment is classed as functional. To be noted: Mus musculus, read-out: ED50 (the source's name).
Experiment [1] is described as follows: Effective dose required to promote microtubule assembly at 10 uM tubulin concentration. The experiment is classed as functional.

For the molecule `CC(=O)O[C@H]1C(=O)[C@]2(C)[C@@H](O)CC3OC[C@@]3(OC(C)=O)[C@H]2[C@H](OC(=O)c2ccccc2)[C@]2(O)C[C@H](OC(=O)[C@H](O)[C@@H](NC(=O)c3ccc(Cl)cc3)c3ccccc3)C(C)=C1C2(C)C` (stereo partly specified), the EC50 in the experiment on B16 stood at 43 nM. Moreover, the ED50 in experiment [1] is 1.7 µM.

For the molecule `CC(=O)O[C@H]1C(=O)[C@@]2(C)[C@H]([C@H](OC(=O)c3ccccc3)[C@]3(O)C[C@H](OC(=O)[C@H](O)[C@@H](NC(=O)c4ccccc4)c4ccccc4)C(C)=C1C3(C)C)[C@]1(OC(C)=O)CO[C@@H]1C[C@@H]2O` [PACLITAXEL], in the experiment on B16, the EC50 is 28 nM. Besides, the ED50 in experiment [1] came to 0.7 µM.

Regarding `CC(=O)O[C@H]1C(=O)[C@@]2(C)[C@H]([C@H](OC(=O)c3ccccc3)[C@]3(O)C[C@H](OC(=O)[C@H](O)[C@@H](NC(=O)c4ccccc4)c4ccc(Cl)cc4)C(C)=C1C3(C)C)[C@]1(OC(C)=O)CO[C@@H]1C[C@@H]2O`, the EC50 in the experiment with B16 was found to be 61 nM. Further, the ED50 in experiment [1] was determined as 1.3 µM.

For the origin of these results see ChEMBL document CHEMBL1126405, “Novel Biologically Active Taxol Analogues: Baccatin III 13-(N-(p-chlorobenzoyl)-(2R,3S)-3-phenylisoserinate) and Baccatin III 13-(N-benzoyl-(2R,3S)-3-(p-chlorophenyl)isoserinate)” (1992).
